Tests used:
[1] = test system: tobacco leaf pieces (callus formation); test: Callus formation of leaf pieces from kanamycin-resistant tobacco shoots on selective medium; assay type: cell-based; conditions: sixteen kanamycin-resistant shoots, three weeks; 10 ppb chlorsulfuron and/or 100 ppm D5293
Description: Callus formation was scored as plus or minus after three weeks of growth.

2-2 gene (In 2-2 mRNA) = test: RNA slot blot / Northern analysis of 2-2 mRNA in roots of chemically treated corn; assay type: in vivo, corn (Missouri 17); parameters: In2-2 induction level: key to the marks not given beside the values
Experimental: Details of the techniques used to perform the procedures used in Example 2 are presented in Example 1. The cDNA library made using poly(A)^+ RNA from the roots of N-(aminocarbonyl)-2-chlorobenzenesulfonamide-treated Missouri 17 corn plants (described in Example 1) was analyzed for additional cDNA clones representing mRNAs induced by substituted benzenesulfonamides. […] This colony was designated In 2-2.
A small scale plasmid preparation was performed on the plasmid contained in colony In 2-2. This plasmid was designated pIn 2-2. An aliquot of pIn 2-2 was nick translated as described earlier. A slot blot containing total RNA from N-(aminocarbonyl)-2-chlorobenzenesulfonamide-treated and untreated roots was prepared and probed with nick-translated pIn 2-2 as described for pIn 2-1 in Example 1.
The pIn 2-2 small scale plasmid preparation was digested to completion with Pst I and analyzed by agarose gel electrophoresis. The cDNA insert of the plasmid was excised by Pst I as a single 1200 bp fragment. Nick-translatedpIn 2-2 was used to probe a Northern blot of RNA from both untreated and N-(aminocarbonyl)-2-chlorobenzenesulfonamide-treated roots.
The ability at various substituted benzenesulfonamides and related compound to induce the expression of the 2-1, 2-2, and 5-2 genes of Missouri 17 corn was evaluated. Corn seeds were germinated and grown hydroponically in 2 liter beakers as described in Example 1. On the tenth day, plants were transferred into fresh 0.5× Hoagland's solution containing the chemical to be tested. Root tissue was harvested from the plants after six hours of chemical treatment, quick-frozen by immersion in liquid N2, and stored at -80° C. until analyzed.
Details of the RNA isolation and slot blot analysis procedures are presented in Example 1. Total RNA was prepared from the root tissue of plants that had been treated with various chemicals using the previously described guanidine thiocyanate procedure. Replicate blots, each consisting of 2 μg of total RNA from tissues treated with each of the chemicals shown in tables 8 and 9, were prepared on nitrocellulose membranes using a Minifold II® Slot-blotter (Schleicher & Schuell) following the manufacturer's recommeneded procedure. Replicate blots were prehybridized and hybridized with cDNA probes made by nick translation of the purified cDNA inserts from plasmid pIn 2-1, pIn 2-2-3, and pIn 5-2. Slot blots were washed as described in Example 1 and exposed to Kodak X-OMAT XAR-5 film for 24 hours at -80° C. using a single Du Pont Lightning Plus intensifying screen. Film was developed using a Kodak X-OMAT film processor. The abililty of a chemical to induce the mRNA encoded by the three inducible genes was evaluated in one of two ways. Qualitative evaluation was performed by direct visual comparison of the autoradiographic signal intensities on the films for the hybridization of each probe to the different RNA samples. Quantitative evaluation was performed by cutting each slot containing hybridized RNA from the blot, immersing it in 2 ml of Du Pont ECONOFLUOR® scintillation cocktail and counting the radioactivity in each slot in a scintillation counter. The net amount of radioactivity hybridizing to N-(aminocarbonyl)-2-chlorobenzenesulfonamide-treated RNA after subtraction of radioactivity hybridizing to untreated RNA is presented in Table 15.

[2] = test system: petunia P6.1 gene (P6 RNA); test: Northern / RNAse protection analysis of P6 RNA in roots of chemically treated petunia; assay type: in vivo, Petunia (Mitchell)
Description: Petunia (Mitchell) seeds were germinated in soil and allowed to grow for one month under standard greenhouse conditions. Plants were transferred to a hydroponic growth apparatus in a greenhouse using foam plugs to support the plants. These plugs were then placed in holes in a wooden bDard and placed over a stainless steel sink containing 0.5× Hoagland's solution. The solution was aerated using standard aquarium pumps, and was changed weekly. After one month of hydroponic growth, plants were transferred to stainless steel trays containing either fresh 0.5 × Hoagland's or 0.5× Hoagland's containing 0.2 g per liter of N-(aminocarbonyl)-2-chlorobenzenesulfonamide. Root tissue was harvested after six hours of treatment.
Ten μg (2 mg/ml) of total RNA from control and N-(aminocarbonyl)-2-chlorobenzenesulfonamide-treated roots was denatured by adding 10 μl of deionized formamide, 3.5 μl formaldehyde, 4 μl 5× MEN buffer (40 mM MOPS pH 7.0, 10 mM sodium acetate, 1 mM EDTA) and incubating at 65° C. for 15 minutes. […] RNA was stained in the presence of 10 mM sodium phosphate pH 6.8 and 1 μg/ml acridine orange for 30 minutes. The gel was then desrained in 10 mM sodium phosphate for 30 minutes, and the RNA was visualized on a UV transilluminator, photographed, and blotted to nitrocellulose (Millipore HAWP). To do this, Whatman 3MM paper was placed below the gel on a glass plate so that the ends of the paper extended into 20× SSC. A sheet of nitroccllulose which had been prewet with 2× SSC was placed on top of the gel followed by a layer of Whatman 3MM, then a stack of paper towels 10 cm high. A glass plate and weight were then placed on top of the stack. Following an overnight transfer, the filter was rinsed briefly in 2× SSC, air dried, and baked in vacuo for 2 hours at 80° C.
The filters were prehybridized for 5 hours in plastic dishes at 42° C. using the hybridization buffer described earlier. Plasmid p6.1 was nick-translated by combining 1 μg of DNA with 5 μl 10× buffer (0.5M Tris-HCl pH 8.0, 0.1M MgSO4, 10 mM DTT and 0.5 mg/ml BSA), 5 μl 0.3 uM d(AGT)TP, 5 μl ^32 P-dCTP (Amersham, 10 mCi/ml, 400 Ci/mmole), 1 μl DNA polymerase 1 (5 U/μl, Boehringer-Mannheim), and 1 μl of 0.1 μg/ml DNAse 1 in a total volume of 50 μl. […] The reaction was then incubated for 5 minutes at 70° C., and labelled DNA was separated from unincorporated nucleotides by Sephadex® G-50 column chromatography. The prehybridization solution was removed from the bag and replaced with hybridization solution containing nick-translated plasmid P6.1 DNA at a concentration of 1×10^6 cpm/ml. […] Filters were washed twice with 2× SSC, 0.1% SDS at 42° C. followed by two washes in 0.1× SSC, 0.1%SDS at 60° C.
RNA probes complementary to the coding strands in both P644 and P645 were synthesized in the following reaction: 50 uCi ^32 P-UTP, 2 μl 5× transcription buffer (200 mM Tris-HCl pH 7.5, 30 mM MgCl2, 10 mM spermidine), 0.5 μl 0.2M DTT, and 0.5 μl of either T3 polymerase (plasmid P645) or T7 polymerase (plasmid P644). Incubation was carried out at 40° C. for 1 hour. The DNA template was hydrolyzed for 15 minutes at 37° C. by addition of 30 μl H2 O, 1 μl RNAsin, 2,5 μl vanadyl ribonucleoside complex, 6 μl 5× transcription buffer and 1 μl DNAse 1 (1 mg/ml) to the transcription reaction. The reaction was extracted with an equal volume of phenol:chloroform (1:1 v/v). The RNA was precipitated once with ethanol in the presence of ammonium acetate and once with ethanol in the presence of sodium acetate. The pellets were dissolved in 25 μl of TE. Ten μg of RNA from untreated and N-(aminocarbonyl)-2-chlorobenzenesulfonamide-treated plants were mixed with 1×10^6 cpm of each of the two probes in 30 ul of hybridization buffer (40 mM PIPES pH 6.7, 0.4M NaCl, 1 mM EDTA). […] Single stranded RNA was selectively digested by adding 300 μl RNAse A and RNAse T1 to 40 μg/ml and 2 μg/ml respectively in 10 mM Tris-HCl pH 7.5, 5 mM EDTA, and 300 mM NaCl.

[3] = test system: 2-2 promoter/HRA recombinant gene; test: RNAse protection analysis of HRA (ALS) mRNA in leaves of tobacco transformed with 2-2 promoter/HRA gene; assay type: in vivo; conditions: excised leaves, 200 mg/l in 0.5× Hoagland's, 16-24 hours
Experimental: The expression of stable cytoplasmic mRNA transcribed from the wild type and transforming ALS genes in transformed plants were measured by RNAse protection analysis. In this manner, expression of the pDuPS22 construction was distinguished from the wild type ALS genes by virtue of the fact that the pDUPS22 transcript has a 2-2 untranslated leader that is divergent from the untranslated leader of the native ALS genes. […]
RNAse protection assays were carried out using the protocol of Zinn et al. (Zinn et al. Cell (1983) 34, 865-879). […] The sizes of the labelled RNA fragments remaining after digestion with RNAse T1 and RNAse A were determined by electrophoresis using 6% denaturing polyacrylamide gels.

[4] = test system: tobacco T2 gene (T2 mRNA); test: Northern analysis of T2 mRNA in roots of chemically treated tobacco; assay type: in vivo, N. tabacum (Petite Havana SRI); conditions: treated vs control plants
Description: The procedures described for the isolation of the petunia cDNA clone P6.1 in Example 4 were repeated using N. tabacum (Petite Havana SRI) as the starting plant material. Differential screening of the resulting tobacco cDNA library prepared using poly(A)^+ RNA from the roots of N-(aminocarbonyl)-2-chlorobenzenesulfonamide-treated tobacco plants identified a cDNA clone representing an N-(aminocarbonyl)-2-chlorobenzenesulfonamide-inducible mRNA species. This clone was designated T2.
A Northern blot of total RNA from the roots of untreated and N-(aminocarbonyl)-2-chlorobenzenesulfonamide-treated tobacco plants was probed with nick-translated T2.1 to determine the size of the corresponding T2 mRNA. The methods used for these procedures were described in Example 4.

[5] = hydroponic treatment, corn roots
[6] = hydroponic 200 mg/l, sampled at 2, 4, 6 and 22 hours, roots

hybridization of P6.1 probe to root RNA (Northern blot) ([2]; hydroponic 0.2 g per liter, six hours, petunia roots): hybridized to an 800 bp message | time at which P6 RNA reached maximum levels [2, 6]: ≤ 6 h | time at which P6 RNA was detectable [2, 6]: ≤ 2 h
SMILES: NC(=O)NS(=O)(=O)c1ccccc1Cl
Callus formation (shoots whose leaf pieces formed callus / shoots tested) [1]: 0/16 | In2-2 induction level (2-2 gene (In 2-2 mRNA); hydroponic application, 100 ppm): +++++ | hybridization of pIn 2-2 to root RNA (Northern blot) (2-2 gene (In 2-2 mRNA); [5]): present only in RNA from the roots | hybridization of pIn 2-2 to root RNA (slot blot) (2-2 gene (In 2-2 mRNA); [5]): hybridizes strongly | RNAse protection of P6.1 probes by root RNA ([2]; petunia roots, treated vs untreated plants): Protected fragments of 110 bp were observed in induced but not control RNA | induction of HRA mRNA (RNAse protection) [3]: induction of high levels of stable cytoplasmic HRA mRNA | hybridization of T2.1 to root RNA (Northern blot) [4]: hybridized to an mRNA of 800 nt

Source: patent US5608143A, “External regulation of gene expression” (E. I. Du Pont de Nemours and Company, priority 1994, dated 1997)
